Consider eleven compounds from US20230212549A1, “COMPOUNDS COMPRISING A […] LIGAND AND USE THEREOF” (priority 2021, published 2023).

The structures appear in SMILES notation. Numbered stars: 1 amine (or outer) side, 2 acyl side, 3 side chain; on linkers, the order of the positions; unused ones are H or OH. Bridge positions count the residues as written; N and C are the ends. Square brackets hold non-standard residues; d marks the D form. Peptide text beside a SMILES is read from it. * marks the point of attachment. X35 = CC1(C)C(=CC=CC=CC2=[N+](CCCCS(=O)(=O)[O-])c3ccccc3C2(C)C)N(CCCCCC(=O)N2CCN(Cc3cc(C[*:1])cc(C[*:2])c3)CC2)c2ccccc21; X12 = O=C(O)CN1CCN(CC(=O)O)CCN(CC(=O)NCCCOCCOCCOCCCN*)CCN(CC(=O)O)CC1; Oic = O=C(O)[C@@H]1C[C@@H]2CCCC[C@@H]2N1; mXylylene = c1cc(C[*:1])cc(C[*:2])c1; 2Thi = N[C@@H](Cc1cccs1)C(=O)O; Suc = O=C(CCC(=O)[*:2])[*:1]; Hexanoyl = CCCCCC(=O)*; Aib = CC(C)(N)C(=O)O

One assay has as its target Human recombinant FAP (Homo sapiens, UniProt Q12884). Description: FRET-based FAP protease activity assay. It is filed as biochemical. Also on record: purchased R&D systems 3715-SE.
Assay [1] deals with T1, FAP-expressing human WI-38 fibroblasts (Homo sapiens, UniProt Q12884).
T1 construct: FAP-expressing human WI-38 fibroblasts (ECACC) were cultured in EMEM; host or cells: WI-38 human fibroblasts
Description: Competitive FACS binding assay. How it is done: Cells were analyzed in an Attune NxT flow cytometer. […] […].
Cells were analyzed in an Attune NxT flow cytometer. […]

The mark [2] stands for this setting: pIC50 Category (Activity), FRET-based FAP protease activity assay, recombinant human FAP, 37° C.

What is called IC50 is the concentration at which inhibition is half-maximal.

T1 sequence (Q12884 whole entry): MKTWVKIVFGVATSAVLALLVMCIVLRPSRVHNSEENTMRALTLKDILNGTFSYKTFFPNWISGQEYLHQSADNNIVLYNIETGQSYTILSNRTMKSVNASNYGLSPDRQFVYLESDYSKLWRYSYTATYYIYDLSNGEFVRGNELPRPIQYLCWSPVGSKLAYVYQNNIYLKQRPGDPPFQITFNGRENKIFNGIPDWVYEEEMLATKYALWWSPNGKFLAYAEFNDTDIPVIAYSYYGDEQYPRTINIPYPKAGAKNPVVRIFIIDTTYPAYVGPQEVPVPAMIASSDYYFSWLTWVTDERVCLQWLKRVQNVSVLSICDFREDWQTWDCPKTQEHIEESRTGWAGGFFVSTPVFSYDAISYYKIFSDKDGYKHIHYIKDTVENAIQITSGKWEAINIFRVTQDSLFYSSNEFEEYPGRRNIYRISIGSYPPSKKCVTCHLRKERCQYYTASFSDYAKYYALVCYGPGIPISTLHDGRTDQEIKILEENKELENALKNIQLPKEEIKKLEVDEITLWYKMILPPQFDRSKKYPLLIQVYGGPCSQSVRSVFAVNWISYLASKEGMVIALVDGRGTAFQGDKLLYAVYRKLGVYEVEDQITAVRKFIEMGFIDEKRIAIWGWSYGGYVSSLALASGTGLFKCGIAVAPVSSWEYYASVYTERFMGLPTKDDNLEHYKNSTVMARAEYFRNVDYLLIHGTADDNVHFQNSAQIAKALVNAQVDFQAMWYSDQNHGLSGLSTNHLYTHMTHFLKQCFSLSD
Chain of Human recombinant FAP (Q12884 whole entry): as above

With `CSCC[C@H](NC(=O)CCC(=O)NCCCOCCOCCOCCCNC(=O)CN1CCN(CC(=O)O)CCN(CC(=O)O)CCN(CC(=O)O)CC1)C(=O)N[C@H]1CSCc2cccc(c2)CSC[C@@H](C(=O)N[C@@H](CC(=O)O)C(=O)N[C@@H](Cc2c[nH]cn2)C(=O)N[C@@H](Cc2ccccc2)C(=O)N[C@@H](CCCNC(=N)N)C(=O)N[C@@H](CC(=O)O)C(N)=O)NC(=O)[C@H](Cc2ccccc2)NC(=O)[C@H](CCC(=O)O)NC(=O)[C@H]([C@@H](C)O)NC(=O)[C@@H]2CCCN2C(=O)[C@@H]2CCCN2C1=O` [3BP-3169, DOTA-Ttds-Met-[Cys(3MeBn)-Pro-Pro-Thr-Glu-Phe-Cys]-Asp-His-Phe-Arg-Asp-NH2] ({X12-Suc}-MCPPTEFCDHFRD-NH2; linker 2-8 via mXylylene), the IC50 on Human recombinant FAP (pIC50 (highest activity categories), text on Table 9 categories (FACS binding and FAP activity assay)) was under 10 nM; on Human recombinant FAP (setting [2]), under 10 nM; in assay [1], under 10 nM.
Consider `CC(C)C[C@H](NC(=O)CCC(=O)NCCCOCCOCCOCCCNC(=O)CN1CCN(CC(=O)O)CCN(CC(=O)O)CCN(CC(=O)O)CC1)C(=O)N[C@H]1CSCc2cccc(c2)CSC[C@@H](C(=O)N[C@@H](CC(=O)O)C(=O)N[C@@H](Cc2c[nH]cn2)C(=O)N[C@@H](Cc2ccccc2)C(=O)N[C@@H](CCCNC(=N)N)C(=O)N[C@@H](CC(=O)O)C(N)=O)NC(=O)[C@H](Cc2ccccc2)NC(=O)[C@H](CCC(=O)O)NC(=O)[C@H]([C@@H](C)O)NC(=O)[C@@H]2CCCN2C(=O)[C@@H]2CCCN2C1=O` [3BP-3172, DOTA-Ttds-Leu-[Cys(3MeBn)-Pro-Pro-Thr-Glu-Phe-Cys]-Asp-His-Phe-Arg-Asp-NH2] ({X12-Suc}-LCPPTEFCDHFRD-NH2; linker 2-8 via mXylylene), for which the IC50 (at Human recombinant FAP (setting [2]); in assay [1]) was under 10 nM throughout.
In the case of `CSCC[C@H](NC(C)=O)C(=O)N[C@@H]1CSCc2cccc(c2)CSC[C@@H](C(=O)N[C@@H](CC(=O)O)C(=O)N[C@@H](Cc2c[nH]cn2)C(=O)N[C@@H](Cc2ccccc2)C(=O)N[C@@H](CCCNC(=N)N)C(=O)N[C@@H](CC(=O)O)C(N)=O)NC(=O)[C@H](Cc2ccccc2)NC(=O)[C@H](CCC(=O)O)NC(=O)[C@H]([C@@H](C)O)NC(=O)[C@@H]2CCCN2C(=O)[C@@H]2CCCN2C1=O` [3BP-3175, Ac-Met-[cys(3MeBn)-Pro-Pro-Thr-Glu-Phe-Cys]-Asp-His-Phe-Arg-Asp-NH2] (Ac-M[dC]PPTEFCDHFRD-NH2; linker 2-8 via mXylylene), the IC50 (on Human recombinant FAP (setting [2]); in assay [1]) was under 10 nM throughout.
With `CSCC[C@H](NC(C)=O)C(=O)N[C@H]1CSCc2cccc(c2)CSC[C@@H](C(=O)N[C@@H](CC(=O)O)C(=O)N[C@@H](Cc2c[nH]cn2)C(=O)N[C@@H](Cc2ccccc2)C(=O)N[C@@H](CCCNC(=N)N)C(=O)N[C@@H](CC(=O)O)C(N)=O)NC(=O)[C@H](Cc2cccs2)NC(=O)[C@H](CCC(=O)O)NC(=O)[C@H]([C@@H](C)O)NC(=O)[C@@H]2CCCN2C(=O)[C@@H]2CCCN2C1=O` [3BP-3193, Ac-Met-[Cys(3MeBn)-Pro-Pro-Thr-Glu-Thi-Cys]-Asp-His-Phe-Arg-Asp-NH2] (Ac-MCPPTE[2Thi]CDHFRD-NH2; linker 2-8 via mXylylene), the IC50 (on Human recombinant FAP (setting [2]); in assay [1]) was under 10 nM in each case.
Consider `CSCC[C@H](NC(C)=O)C(=O)N[C@H]1CSCc2cccc(c2)CSC[C@@H](C(=O)N[C@@H](CC(=O)O)C(=O)N[C@@H](Cc2c[nH]cn2)C(=O)N[C@@H](Cc2ccccc2)C(=O)N[C@@H](CCCNC(=N)N)C(=O)N[C@@H](CC(=O)O)C(N)=O)NC(=O)[C@H](Cc2ccccc2)NC(=O)[C@H](CCC(=O)O)NC(=O)[C@H]([C@@H](C)O)NC(=O)[C@@H]2CCCN2C(=O)C(C)(C)NC1=O` [3BP-3204, Ac-Met-[Cys(3MeBn)-Aib-Pro-Thr-Glu-Phe-Cys]-Asp-His-Phe-Arg-Asp-NH2] (Ac-MC[Aib]PTEFCDHFRD-NH2; linker 2-8 via mXylylene), for which the IC50 (at Human recombinant FAP (setting [2]); in assay [1]) was 10 to 79.4 nM each time.
For the compound `CSCC[C@H](NC(C)=O)C(=O)N[C@H]1CSCc2cccc(c2)CSC[C@@H](C(=O)N[C@@H](CC(=O)O)C(=O)N[C@@H](Cc2c[nH]cn2)C(=O)N[C@@H](Cc2ccccc2)C(=O)N[C@@H](CCCNC(=N)N)C(=O)N[C@@H](CC(=O)O)C(N)=O)NC(=O)[C@H](Cc2ccccc2)NC(=O)[C@H](CCC(=O)O)NC(=O)[C@H]([C@@H](C)O)NC(=O)[C@@H]2CCCN2C(=O)[C@@H]2C[C@@H]3CCCC[C@@H]3N2C1=O` [3BP-3216, Ac-Met-[Cys(3MeBn)-Oic-Pro-Thr-Glu-Phe-Cys]-Asp-His-Phe-Arg-Asp-NH2] (Ac-MC[Oic]PTEFCDHFRD-NH2; linker 2-8 via mXylylene), the IC50 (on Human recombinant FAP (setting [2]); in assay [1]) was 100 to 794 nM each time.
Take `CSCC[C@H](NC(C)=O)C(=O)N[C@H]1CSCc2cccc(c2)CSC[C@@H](C(=O)N[C@@H](CC(=O)O)C(=O)N[C@@H](Cc2c[nH]cn2)C(=O)N[C@@H](Cc2ccccc2)C(=O)N[C@@H](CCCNC(=N)N)C(=O)N[C@@H](CC(=O)O)C(N)=O)NC(=O)[C@H](Cc2ccccc2)NC(=O)[C@H](CCC(=O)O)NC(=O)[C@H]([C@@H](C)O)NC(=O)[C@@H]2C[C@@H]3CCCC[C@@H]3N2C(=O)[C@@H]2CCCN2C1=O` [3BP-3217, Ac-Met-[Cys(3MeBn)-Pro-Oic-Thr-Glu-Phe-Cys]-Asp-His-Phe-Arg-Asp-NH2] (Ac-MCP[Oic]TEFCDHFRD-NH2; linker 2-8 via mXylylene): the IC50 (at Human recombinant FAP (setting [2]); in assay [1]) was 100 to 794 nM in each case.
Consider `CCCCCC(=O)N[C@H]1CSCc2cc(cc(CN3CCN(C(=O)CCCCCN4C(=CC=CC=CC5=[N+](CCCCS(=O)(=O)[O-])c6ccccc6C5(C)C)C(C)(C)c5ccccc54)CC3)c2)CSC[C@@H](C(=O)N[C@@H](CC(=O)O)C(N)=O)NC(=O)[C@H](Cc2ccccc2)NC(=O)[C@H](CCC(N)=O)NC(=O)[C@H]([C@@H](C)O)NC(=O)[C@@H]2CCCN2C(=O)[C@@H]2CCCN2C1=O` [3BP-3693, Hex-[Cys(tMeBn(Cy5SO3-PP))-Pro-Pro-Thr-Gln-Phe-Cys]-Asp-NH2] (Hexanoyl-CPPTQFCD-NH2; linker 1-7 via X35), for which, at Human recombinant FAP (setting [2]), the IC50 was in the range of 10 to 79.4 nM.
On to `CCCCCC(=O)N[C@H]1CSCc2cc(CSCCNC(=O)CCCCCN3C(=CC=CC=CC4=[N+](CCCCS(=O)(=O)[O-])c5ccccc5C4(C)C)C(C)(C)c4ccccc43)cc(c2)CSC[C@@H](C(=O)O)NC(=O)[C@H](Cc2ccccc2)NC(=O)[C@H](CCC(N)=O)NC(=O)[C@H]([C@@H](C)O)NC(=O)[C@@H]2CCCN2C(=O)[C@@H]2CCCN2C1=O` [3BP-3694, Hex-[Cys(tMeBn(Cy5SO3-AET))-Pro-Pro-Thr-Gln-Phe-Cys]-OH], for which the IC50 on Human recombinant FAP (setting [2]) fell in the range of 100 to 794 nM.
Turning to `CCCCCC(=O)N[C@H]1CSCc2cc(CSCCNC(=O)CN3CCN(CC(N)=O)CCN(CC(N)=O)CCN(CC(N)=O)CC3)cc(c2)CSCC(C(=O)O)NC(=O)[C@H](Cc2ccccc2)NC(=O)[C@H](CCC(N)=O)NC(=O)[C@H]([C@@H](C)O)NC(=O)[C@@H]2CCCN2C(=O)[C@@H]2CCCN2C1=O` (stereo partly drawn) [3BP-5323, Hex-[Cys(tMeBn(DOTAM-AET))-Pro-Pro-Thr-Gln-Phe-Cys]-OH], at Human recombinant FAP (pIC50 Category (activity), Recombinant human FAP), the IC50 is under 10 nM.
For `CCCCCC(=O)N[C@H]1CSCc2cc(CSCCNC(=O)COc3ccc4nc3CN(CC(=O)O)CCN(CC(=O)O)CCN(CC(=O)O)C4)cc(c2)CSC[C@@H](C(=O)O)NC(=O)[C@H](Cc2ccccc2)NC(=O)[C@H](CCC(N)=O)NC(=O)[C@H]([C@@H](C)O)NC(=O)[C@@H]2CCCN2C(=O)[C@@H]2CCCN2C1=O` [3BP-5363, Hex-[C(tMeBn(LaAcPCTA-AET))-PPTQFC]-OH], the “pIC50 Category (activity)” value at Human recombinant FAP (Recombinant human FAP) was “B (category B for pIC50 values between 7.1 and 8.0)”.
